In US20100280231A1, “WHITENING AGENT COMPRISING EQUOL OR ITS SACCHARIDE DERIVATIVE AS AN EFFECTIVE INGREDIENT” (priority 2007, published 2010):
Where two headings read alike, the source gives them in different places.

Key:
[1] = system: skin of the upper arm of volunteers; experiment: Safety test, application on the upper arm of volunteers; details: 3 parts by weight (equol equivalent) in ethanol/glycerol/water base, 1-cm square, three times a day for three days, five volunteers each, observed for the next week
[2] = system: Mouse B16 melanoma cells; experiment: Test of whitening effect in vitro (melanin production); assay type: cell-based; parameters: key to Determination of whitening effect: −: Not changed; ±: Slightly whitened; +: A little whitened; ++: Significantly whitened; +++: Completely whitened; details: for Determination of whitening effect: B16 melanoma cells, 4 days; for EC50: Mus musculus, B16, concentration giving half of the melanin production of the negative control, read-out: ED50 (the source's name); for Melanin Production: negative control 73.9
Experimental: Three equol glycoside preparation prepared in Experiment 1, i.e. the solution containing reaction products (a solution containing 4′-O-α-D-glucopyranosyl-S-equol and 7-O-α-D-glucopyranosyl-S-equol, hereinafter, described as “equol glycoside containing solution”), 4′-O-α-D-glucopyranosyl-S-equol and 7-O-α-D-glucopyranosyl-S-equol, and the equol used in Experiment 1 were used as test samples, and the following experiment was carried out to determine their whitening effect. Mouse B16 melanoma cells suspended in RPMI-1640 medium containing 10 v/v % fetal calf serum (hereinafter, abbreviated as “FCS”) were inoculated into “6-MULTIWELL MICROPLATE” (6-well microplate commercialized by Becton, Dickinson and Company) to give a cell concentration of 4×10^4 cells/well. After the cells were adhered to the bottom of well, the culture supernatant was removed. The cells were admixed with equol or any one of the three equol glycoside samples, diluted with the same medium to give the concentration described in Table 2, and then cultured at 37° C. in an atmosphere of 5 v/v % CO2 for four days. The cells were collected after admixed with trypsin-EDTA, washed once with Dulbecco's PBS (−) (hereinafter, abbreviated as “D-PBS”), and then dissolved in 1N-sodium hydroxide. A part of the solution was used to determine the amount of protein. The above alkaline solution was boiled for 30 minutes and the amount of melanin was measured. […] Also ED50 (the concentration of the test sample giving half of the melanin production in the cell cultured with negative control) is shown in Table 2. The medium alone was used as negative control, and koji acid, which has been used as a whitening substance for external dermatological composition, was used as positive control at the concentration described in Table 2 (0.5 to 2 mM), to evaluate the whitening effect. The evaluation of whitening effect and measurement of melanin, protein and equol glycosides were carried out as follows.
The melanin production was determined by comparing the absorbance at 450 nm (reference 650 nm) of each alkaline solution to that of melanin standard (Sigma Corporation), measured with “MICROPLATE READER M-Vmax” (commercialized by Wako Pure Chemical Industries Co., Ltd.).
The amount of protein was determined by Bradford method using human serum album bumin as standard.
The concentration of equol glycoside in the powdery product used in the following experiments were determined by the same method as used in Experiment 1, based on the molar absorption coefficient of equol measured at UV 280 nm.

[3] = system: skin of the upper arm of volunteers; details: human, in vivo
[4] = system: mouse 3T3-L1 cells differentiated into mature cells; experiment: Test for lipid hydrolysis (glycerol release from mature lipocytes); assay type: cell-based; details: for Enhancing effect on lipid hydrolysis: glycerol per cell protein, 6 hours, control 274, * p < 0.05 vs control
Experimental: After the culture supernatant of mouse 3T3-L1 cells cultured under the same condition described above was removed, a regular medium containing 5 μg/ml insulin, 0.25 μM dexamethasone and 0.5 mM 3-isobutyl-1-methylxanthin was added by 1 ml/well, and then the cells were cultured for two days to differentiate into mature cells. After the supernatant was removed, the cells were washed with D-PBS three times and cultured with regular medium for 12 days while replacing the medium every two or three days by 1 ml/well. After the supernatant was removed and the cells were washed with D-PBS two times, a solution containing equol or equol glycosides diluted with D-MEM containing 1% bovine serum albumin to give the concentration described in Table 4 was added by 0.25 ml/well, and then the cell was cultured for 6 hours. After the supernatant was collected, the amount of glycerol was measured to determine the amount of the degraded lipid. After the supernatant was removed and the cells were washed with D-PBS three times, D-PBS containing 0.25% Triton X-100 was added to collect the cells, and then the cells were sonicated to give a cell-dissolving solution. The amount of protein of the sonicated cells was measured by Bradford method as in Experiment 3, and the amount of glycerol per cell protein representing degree of lipid degradation was shown in Table 3. The amount of glycerol was measured with “GLYCEROL REGENT A” (glycerol measurement kit commercialized by Zen-Bio, Inc.).

[5] = system: mouse 3T3-L1 cell line (precursor lipocyte); experiment: Effect on differentiation of precursor lipocyte into lipocyte (oil red O staining); assay type: cell-based; details: for Concentration enhancing differentiation of precursor lipocyte into mature lipocyte: Table 3, compared to control; for Enhancing effect on differentiation into lipocyte: with 10 μg/ml insulin, 12 days, relative absorbance, control = 100%, * p < 0.05 vs control
Experimental: It is known that mouse 3T3-L1 cell line (precursor lipocyte) differentiates into mature lipocyte when cultured in the presence of a differentiation inducer, and accumulates oil droplet in the cell according to the progress of differentiation. The mouse 3T3-Li cells were suspended in a medium, which is Dulbecco's MEM medium (hereinafter, abbreviated as “D-MEM”) supplemented with FCS (final concentration of 10 v/v %) and glucose (final concentration of 3 mg/ml), (hereinafter, described as “regular medium”) to give a cell concentration of 2.5×10^4 cells/well, and inoculated to “CELL CULTURE 24-MULTIWELL MICROPLATE” (24-well microplate coated with collagen type 1, commercialized by Becton, Dickinson and Company) by 1 ml/well. After the cells were cultured at 37° C. in an atmosphere of 5 v/v % CO2 for two days, the supernatant was removed and the remaining cells were admixed with a medium containing 10 μg/ml insulin and equol or equol glycosides dissolved in 50% ethanol, to give a concentration in Table 3, by 1 ml/well and then cultured for 12 days while replacing the medium every two or three days. After each well of the plate was washed with “D-PBS” three times, D-PBS containing 10% formalin was added by 0.2 ml/well, and then the cell was placed at 4° C. for one hour for fixation. After the fixing fluid was removed, a staining fluid of oilred O was added by 0.15 ml/well, and allowed to react at ambient temperature for 15 minutes to stain the lipid droplet in 3T3-L1 cell. After the staining fluid was removed, each well was washed with distilled water three times, and then the plate was dried. After the pigment in each well was dissolved in 0.4 ml of isopropanol, the absorbance of the resulting solution was measured at 490. The progress of the cell differentiation was expressed with relative absorbance to the absrobance of the cell cultured with control regarded as 100%.

[6] = system: estrogen-receptor; details: Kenneth D. R. et al., Am. J. Clin. Nutr. 81, 1072-1079 (2005); cited from earlier work

Row | Compound | Determination of whitening effect ([2]; sample concentration 5 μM) | Determination of whitening effect ([2]; sample concentration 10 μM) | Determination of whitening effect ([2]; sample concentration 20 μM) | Melanin Production ([2]; sample concentration 5 μM) | Melanin Production ([2]; sample concentration 10 μM) | Melanin Production ([2]; sample concentration 20 μM) | Enhancing effect on lipid hydrolysis ([4]; sample 5 μM) | Enhancing effect on lipid hydrolysis ([4]; sample 20 μM) | Enhancing effect on lipid hydrolysis ([4]; sample 80 μM) | Concentration enhancing differentiation of precursor lipocyte into mature lipocyte [5] | Enhancing effect on differentiation into lipocyte ([5]; sample 5 μM) | Enhancing effect on differentiation into lipocyte ([5]; sample 20 μM) | further results
1 | OC[C@H]1O[C@H](Oc2ccc([C@@H]3COc4cc(O)ccc4C3)cc2)[C@H](O)[C@@H](O)[C@@H]1O [4′-O-α-D-glucopyranosyl-R-equol] | – | – | – | – | – | – | – | – | – | – | – | – | Condition of the skin after application [1]: no rough dry skin or rubor
2 | OCC1O[C@H](Oc2ccc([C@H]3COc4cc(O)ccc4C3)cc2)[C@@H](O)C(O)[C@@H]1O (stereo partly drawn) [4′-O-α-D-glucopyranosyl-S-equol] | + | + | ++ | 57.1 μg/mg-cell protein | 55.0 μg/mg-cell protein | 48.2 μg/mg-cell protein | 272 μg/mg-cell protein | 320* μg/mg-cell protein | 401* μg/mg-cell protein | 80 µM | 92% | 107% | EC50 [2]: 38.8 µM; Condition of the skin after application [3]: no rough dry skin or rubor; Enhancing effect on differentiation into lipocyte ([5]; sample 80 μM): 217* %
3 | OC[C@H]1O[C@H](Oc2ccc3c(c2)OC[C@@H](c2ccc(O)cc2)C3)[C@H](O)[C@@H](O)[C@@H]1O [7-O-α-D-glucopyranosyl-R-equol] | – | – | – | – | – | – | – | – | – | – | – | – | Condition of the skin after application [1]: no rough dry skin or rubor
4 | OCC1O[C@H](Oc2ccc3c(c2)OC[C@H](c2ccc(O)cc2)C3)[C@@H](O)C(O)[C@@H]1O (stereo partly drawn) [7-O-α-D-glucopyranosyl-S-equol] | + | + | ++ | 54.8 μg/mg-cell protein | 48.4 μg/mg-cell protein | 43.0 μg/mg-cell protein | 265 μg/mg-cell protein | 312* μg/mg-cell protein | 374* μg/mg-cell protein | 80 µM | 96% | 101% | EC50 [2]: 27.3 µM; Condition of the skin after application [3]: no rough dry skin or rubor; Enhancing effect on differentiation into lipocyte ([5]; sample 80 μM): 253* %
5 | Oc1ccc(C2COc3cc(O)ccc3C2)cc1 (centres unmarked) [Equol, equol] | ++ | +++ | +++ | 36.8 μg/mg-cell protein | 30.7 μg/mg-cell protein | 29.8 μg/mg-cell protein | 392* μg/mg-cell protein | 679* μg/mg-cell protein | 1119* μg/mg-cell protein | ≥ 5 µM | 194* % | 430* % | Whitening efficiency compared to positive control ([2]; equol 5 μM to 20 μM, Table 2): approximately the same as that of 1 mM koji acid; Concentration enhancing degradation of triglyceride accumulated in lipocyte ([4]; Table 3, compared to control): ≥ 5 µM
6 | O=c1cc(CO)occ1O [Koji cid, koji acid, reference compound] | – | – | – | – | – | – | – | – | – | – | – | – | Determination of whitening effect ([2]; sample concentration 1 mM): +; Determination of whitening effect ([2]; sample concentration 2 mM): ++; Determination of whitening effect ([2]; sample concentration 4 mM): +++; Melanin Production ([2]; sample concentration 1 mM): 57.1 μg/mg-cell protein; Melanin Production ([2]; sample concentration 2 mM): 47.5 μg/mg-cell protein; Melanin Production ([2]; sample concentration 4 mM): 37.7 μg/mg-cell protein
7 | S-equol | – | – | – | – | – | – | – | – | – | – | – | – | Estrogenic activity according to the affinity to the receptor [6]: higher than that of R-equol
